In US9783532B2, “Molecules having certain pesticidal utilities, and intermediates, compositions, and processes related thereto” (Dow AgroSciences LLC, priority 2013, dated 2017):

Tests used:
[1] = system: Cabbage Looper (Trichoplusia ni) ("CL"); assay: Bioassay on cabbage looper (CL), 128-well diet tray assay; assay type: in vivo; settings: for mortality at 50 µg/cm2: 168 h, 50 μg/cm^2 on artificial diet, second instar CL larvae, 25° C., five to seven days, average of eight wells, read-out: CL % Control (or Mortality) rating; for pest or weed control at 50 µg/cm2: Table ABC (PC), activity rating class, read-out: CL (Biological Results, Insect species)
Procedure, shortened: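 Percent mortality, averaged across eight replicate wells, was read after five to seven days at 25 °C under a 14:10 photoperiod. Each well held one to five second-instar T. ni on diet carrying a dried 50 μg/cm^2 dose applied in acetone-water 90:10.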

[2] = system: Beet Armyworm (Spodoptera exigua) ("BAW"); assay: Bioassay on beet armyworm (BAW), 128-well diet tray assay; assay type: in vivo; settings: for mortality at 50 µg/cm2: 168 h, 50 μg/cm^2 on artificial diet, second instar BAW larvae, 25° C., five to seven days, average of eight wells, read-out: BAW % Control (or Mortality) rating; for pest or weed control at 50 µg/cm2: Table ABC (PC), activity rating class, read-out: BAW (Biological Results, Insect species)
Procedure, shortened: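 Percent mortality, averaged across eight wells, was read after five to seven days at 25° C. under 14:10 light-dark. Each well held one to five second-instar larvae on artificial diet that had been treated with 50 μg/cm^2 compound in 90:10 acetone-water and dried.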

Cc1ccc(C(C)C)c(N2C(=O)CS/C2=N\C(=O)NCCCc2cccc(-c3ncn(-c4ccc(OC(F)(F)F)cc4)n3)c2)c1 [P124, (Z)-1-(3-(2-isopropyl-5-methylphenyl)-4-oxothiazolidin-2-ylidene)-3-(3-(3-(1-(4-(trifluoromethoxy)phenyl)-1H-1,2,4-triazol-3-yl)phenyl)propyl)urea]
mortality at 50 µg/cm2 [1]: 50 to 100% | mortality at 50 µg/cm2 [2]: 50 to 100%

CCCc1ccc(C)cc1N1C(=O)CS/C1=N\C(=O)NCCCc1cccc(-c2ncn(-c3ccc(OC(F)(F)F)cc3)n2)c1 [P125, (Z)-1-(3-(5-methyl-2-propylphenyl)-4-oxothiazolidin-2-ylidene)-3-(3-(3-(1-(4-(trifluoromethoxy)phenyl)-1H-1,2,4-triazol-3-yl)phenyl)propyl)urea]
mortality at 50 µg/cm2 [1]: 50 to 100% | mortality at 50 µg/cm2 [2]: 50 to 100%

CCc1cccc(C)c1N1C(=O)CS/C1=N\C(=O)NCCCc1cccc(-c2ncn(-c3ccc(OC(F)(F)F)cc3)n2)c1 [P127, (Z)-1-(3-(2-ethyl-6-methylphenyl)-4-oxothiazolidin-2-ylidene)-3-(3-(3-(1-(4-(trifluoromethoxy)phenyl)-1H-1,2,4-triazol-3-yl)phenyl)propyl)urea]
mortality at 50 µg/cm2 [1]: 50 to 100% | mortality at 50 µg/cm2 [2]: 50 to 100%

Cc1ccc(N2C(=O)CS/C2=N\C(=O)NCCCc2cccc(-c3ncn(-c4ccc(OC(F)(F)F)cc4)n3)c2)c(C(C)C)c1 [P128, (Z)-1-(3-(2-isopropyl-4-methylphenyl)-4-oxothiazolidin-2-ylidene)-3-(3-(3-(1-(4-(trifluoromethoxy)phenyl)-1H-1,2,4-triazol-3-yl)phenyl)propyl)urea]
mortality at 50 µg/cm2 [1]: 50 to 100% | mortality at 50 µg/cm2 [2]: 50 to 100%

CC(C)c1cc(F)ccc1N1C(=O)CS/C1=N\C(=O)NCCCc1cccc(-c2ncn(-c3ccc(OC(F)(F)F)cc3)n2)c1 [P129, (Z)-1-(3-(4-fluoro-2-isopropylphenyl)-4-oxothiazolidin-2-ylidene)-3-(3-(3-(1-(4-(trifluoromethoxy)phenyl)-1H-1,2,4-triazol-3-yl)phenyl)propyl)urea]
mortality at 50 µg/cm2 [1]: 50 to 100% | mortality at 50 µg/cm2 [2]: 50 to 100%

COc1ccc(N2C(=O)CS/C2=N\C(=O)NCCCc2cccc(-c3ncn(-c4ccc(OC(F)(F)F)cc4)n3)c2)c(C)c1 [P131, (Z)-1-(3-(4-methoxy-2-methylphenyl)-4-oxothiazolidin-2-ylidene)-3-(3-(3-(1-(4-(trifluoromethoxy)phenyl)-1H-1,2,4-triazol-3-yl)phenyl)propyl)urea]
mortality at 50 µg/cm2 [1]: 50 to 100% | mortality at 50 µg/cm2 [2]: 50 to 100%

Cc1ccccc1N1C(=O)CS/C1=N\C(=O)NCCCCc1cccc(-c2ncn(-c3ccc(OC(F)(F)F)cc3)n2)c1 [P170, (Z)-1-(4-oxo-3-(o-tolyl)thiazolidin-2-ylidene)-3-(4-(3-(1-(4-(trifluoromethoxy)phenyl)-1H-1,2,4-triazol-3-yl)phenyl)butyl)urea]
mortality at 50 µg/cm2 [1]: 50 to 100% | mortality at 50 µg/cm2 [2]: 0%

CCc1ccccc1N1C(=O)CS/C1=N\C(=O)NCCCCc1cccc(-c2ncn(-c3ccc(OC(F)(F)F)cc3)n2)c1 [P171, (Z)-1-(3-(2-ethylphenyl)-4-oxothiazolidin-2-ylidene)-3-(4-(3-(1-(4-(trifluoromethoxy)phenyl)-1H-1,2,4-triazol-3-yl)phenyl)butyl)urea]
mortality at 50 µg/cm2 [1]: 50 to 100% | mortality at 50 µg/cm2 [2]: 50 to 100%

CC(C)c1ccccc1N1C(=O)CS/C1=N\C(=O)NCCCCc1cccc(-c2ncn(-c3ccc(OC(F)(F)F)cc3)n2)c1 [P172, (Z)-1-(3-(2-isopropylphenyl)-4-oxothiazolidin-2-ylidene)-3-(4-(3-(1-(4-(trifluoromethoxy)phenyl)-1H-1,2,4-triazol-3-yl)phenyl)butyl)urea]
mortality at 50 µg/cm2 [1]: 50 to 100% | mortality at 50 µg/cm2 [2]: 50 to 100%

Cc1ccc(C(C)C)c(N2C(=O)CS/C2=N\C(=O)NCCCCc2cccc(-c3ncn(-c4ccc(OC(F)(F)F)cc4)n3)c2)c1 [P176, (Z)-1-(3-(2-isopropyl-5-methylphenyl)-4-oxothiazolidin-2-ylidene)-3-(4-(3-(1-(4-(trifluoromethoxy)phenyl)-1H-1,2,4-triazol-3-yl)phenyl)butyl)urea]
mortality at 50 µg/cm2 [1]: 50 to 100% | mortality at 50 µg/cm2 [2]: 50 to 100%

CCc1cccc(C)c1N1C(=O)CS/C1=N\C(=O)NCCCCc1cccc(-c2ncn(-c3ccc(OC(F)(F)F)cc3)n2)c1 [P179, (Z)-1-(3-(2-ethyl-6-methylphenyl)-4-oxothiazolidin-2-ylidene)-3-(4-(3-(1-(4-(trifluoromethoxy)phenyl)-1H-1,2,4-triazol-3-yl)phenyl)butyl)urea]
mortality at 50 µg/cm2 [1]: 0% | mortality at 50 µg/cm2 [2]: 0%

Cc1ccc(N2C(=O)CS/C2=N\C(=O)NCCCCc2cccc(-c3ncn(-c4ccc(OC(F)(F)F)cc4)n3)c2)c(C(C)C)c1 [P180, (Z)-1-(3-(2-isopropyl-4-methylphenyl)-4-oxothiazolidin-2-ylidene)-3-(4-(3-(1-(4-(trifluoromethoxy)phenyl)-1H-1,2,4-triazol-3-yl)phenyl)butyl)urea]
mortality at 50 µg/cm2 [1]: 50 to 100% | mortality at 50 µg/cm2 [2]: 0%

CC(C)c1cc(F)ccc1N1C(=O)CS/C1=N\C(=O)NCCCCc1cccc(-c2ncn(-c3ccc(OC(F)(F)F)cc3)n2)c1 [P181]
mortality at 50 µg/cm2 [1]: 50 to 100% | mortality at 50 µg/cm2 [2]: 50 to 100%

COc1ccc(C(C)C)c(N2C(=O)CS/C2=N\C(=O)NCCCCc2cccc(-c3ncn(-c4ccc(OC(F)(F)F)cc4)n3)c2)c1 [P182, (Z)-1-(3-(2-isopropyl-5-methoxyphenyl)-4-oxothiazolidin-2-ylidene)-3-(4-(3-(1-(4-(trifluoromethoxy)phenyl)-1H-1,2,4-triazol-3-yl)phenyl)butyl)urea]
mortality at 50 µg/cm2 [1]: 50 to 100% | mortality at 50 µg/cm2 [2]: 50 to 100%

CCC(CNC(=O)/N=C1\SCC(=O)N1c1cc(C)ccc1C(C)C)c1ccc(-c2ncn(-c3ccc(OC(F)(F)F)cc3)n2)cc1 (centres unmarked) [P364, (Z)-1-(3-(2-isopropyl-5-methylphenyl)-4-oxothiazolidin-2-ylidene)-3-(2-(4-(1-(4-(trifluoromethoxy)phenyl)-1H-1,2,4-triazol-3-yl)phenyl)butyl)urea]
mortality at 50 µg/cm2 [1]: 50 to 100% | mortality at 50 µg/cm2 [2]: 50 to 100%

Cc1ccccc1NC(=S)NC(=O)NCc1ccc(-c2ncn(-c3ccc(OC(F)(F)F)cc3)n2)cc1 [PC1, 1-(o-tolylcarbamothioyl)-3-[[4-[1-[4-(trifluoromethoxy)phenyl]-1H-1,2,4-triazol-3-yl]phenyl]methyl]urea]
pest or weed control at 50 µg/cm2 [1]: 50 to 100% | pest or weed control at 50 µg/cm2 [2]: 50 to 100%

CC(C)c1cc(F)ccc1NC(=S)NC(=O)NCc1ccc(-c2ncn(-c3ccc(OC(F)(F)F)cc3)n2)cc1 [PC3, 1-[(4-fluoro-2-isopropyl-phenyl)carbamothioyl]-3-[[4-[1-[4-(trifluoromethoxy)phenyl]-1H-1,2,4-triazol-3-yl]phenyl]methyl]urea]
pest or weed control at 50 µg/cm2 [1]: 50 to 100% | pest or weed control at 50 µg/cm2 [2]: 50 to 100%

Cc1ccc(NC(=S)NC(=O)NCc2ccc(-c3ncn(-c4ccc(OC(F)(F)F)cc4)n3)cc2)c(C(C)C)c1 [PC5, 1-[(2-isopropyl-4-methyl-phenyl)carbamothioyl]-3-[[4-[1-[4-(trifluoromethoxy)phenyl]-1H-1,2,4-triazol-3-yl]phenyl]methyl]urea]
pest or weed control at 50 µg/cm2 [1]: 50 to 100% | pest or weed control at 50 µg/cm2 [2]: 50 to 100%

CCc1ccc(C)cc1NC(=S)NC(=O)NCc1ccc(-c2ncn(-c3ccc(OC(F)(F)F)cc3)n2)cc1 [PC7]
pest or weed control at 50 µg/cm2 [1]: 50 to 100% | pest or weed control at 50 µg/cm2 [2]: 50 to 100%
